Measurements: patent US20120035161A1, “Novel Compositions and Methods of Treating Diseases Using the Same” (CORRIDOR PHARMACEUTICALS, INC., priority 2006, published 2012)

How the values were obtained:
[1] = system: Serotonin (5-Hydroxytryptamine) 5-HT2, Non-Selective; test: Assay 271600 radioligand binding, 5-HT2 non-selective; design: species or system Wistar Rat
Description: (§1) The methods employed in this study have been adapted from the scientific literature to maximize reliability and reproducibility. Reference standards were run as an integral part of each assay to ensure the validity of the results obtained. Assays were performed under conditions as described below. Where presented, IC50 values were determined by a non-linear, least squares regression analysis using the Data Analysis Toolbox (MDL Information Systems, San Leandro, Calif., USA). Where inhibition constants (Ki) are presented, the Ki values were calculated using the equation of Cheng and Prusoff (Cheng, Y., Prusoff, W. H., Biochem. Pharmacol. 22:3099-3108, 1973) using the observed IC50 of the tested compound, the concentration of radioligand employed in the assay, and historical values for the KD of the ligand. Where presented, the Hill coefficient (nu), defining the slope of the competitive binding curve, was calculated using the Data Analysis Toolbox.

[2] = molecular target: T1, Serotonin (5-Hydroxytryptamine) 5-HT1B (Rattus norvegicus, UniProt P28564); test: Assay 271200 radioligand binding, 5-HT1B; design: species or system Wistar Rat
T1 construct: from tissue
T1 sequence (P28564 whole entry): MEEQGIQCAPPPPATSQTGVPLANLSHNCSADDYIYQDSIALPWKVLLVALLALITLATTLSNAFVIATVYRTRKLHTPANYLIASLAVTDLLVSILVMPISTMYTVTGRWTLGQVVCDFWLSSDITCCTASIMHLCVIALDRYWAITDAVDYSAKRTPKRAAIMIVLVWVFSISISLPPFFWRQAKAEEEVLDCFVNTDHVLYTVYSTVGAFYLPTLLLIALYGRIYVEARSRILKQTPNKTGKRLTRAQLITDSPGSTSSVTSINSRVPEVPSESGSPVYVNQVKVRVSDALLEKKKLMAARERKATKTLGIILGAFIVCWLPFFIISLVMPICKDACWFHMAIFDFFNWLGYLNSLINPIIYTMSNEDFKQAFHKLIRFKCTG
Description: as §1

[3] = system: Serotonin (5-Hydroxytryptamine) 5-HT1, Non-Selective; test: Assay 271000 radioligand binding, 5-HT1 non-selective; design: species or system Wistar Rat
Description: as §1

[4] = molecular target: T2, Serotonin (5-Hydroxytryptamine) 5-HT1A (Homo sapiens, UniProt P08908); test: Radioligand binding, 5-HT1A ([3H] 8-OH-DPAT)
T2 construct: expressed in transfected cells; host or cells: CHO cells
T2 sequence (P08908 1-422): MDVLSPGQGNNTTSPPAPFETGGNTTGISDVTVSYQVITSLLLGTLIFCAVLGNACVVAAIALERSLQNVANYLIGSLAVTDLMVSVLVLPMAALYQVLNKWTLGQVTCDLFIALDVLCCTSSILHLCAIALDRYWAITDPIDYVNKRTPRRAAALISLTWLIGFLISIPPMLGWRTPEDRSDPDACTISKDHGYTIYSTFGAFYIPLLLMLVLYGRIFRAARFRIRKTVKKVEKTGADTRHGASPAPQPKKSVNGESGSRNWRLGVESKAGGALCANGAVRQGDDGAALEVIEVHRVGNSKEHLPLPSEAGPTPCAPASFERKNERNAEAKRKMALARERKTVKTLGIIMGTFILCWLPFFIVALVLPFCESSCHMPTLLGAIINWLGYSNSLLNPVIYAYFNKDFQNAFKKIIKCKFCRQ
Description: as §1

[5] = system: TNF-α; test: Model of LPS-mediated cytokine production, serum TNF-α; format: in vivo, CD1:ICR mice; conditions: for TNFα inhibition, dose-response study: IP, up to a dose of 5 mg/kg
Description: Both ICI-685 and ICI-735 were formulated in water. For the time course study, both drugs were formulated at a concentration of 1 mg/ml and dosed 10 ml/kg to produce a dose of 10 mg/kg. For the dose-response study, drug was formulated at concentrations of 0.05, 0.2 and 0.5 mg/ml and dosed at a volume of 10 ml/kg to produce doses of 0.5, 2 and 5 mg/kg, respectively. Animals were dosed IV or IP.
CD1:ICR mice were obtained from Harlan (Indianapolis, Ind.) at 6 weeks of age. Animals were housed 5 per cage, kept on a 12 hr light dark cycle and fed food and water ad libitum. Animals were tested at 8-10 weeks of age.
Lipopolysaccharide (heat killed E. coli 0127:B5; Sigma Aldrich) was prepared in distilled water at a concentration of 0.025 mg/ml. LPS was dosed at a volume of 10 ml/kg (IP) to produce a final dose of 0.25 mg/kg (approximately 7.5 μg/mouse). Drugs were dosed prior to LPS administration as indicated elsewhere herein. Blood was collected by retro-orbital eye bleed 90 minutes after LPS administration, Serum was prepared from blood and TNF-α and IL-1β levels were measured by using the OPT-EIA mouse TNF-α and IL-1β ELISA kits (BD Biosciences) as per directions of the manufacturer.
The first study was designed to determine the optimal route of administration and the optimal pre-treatment time. Two pre-dose time course studies were conducted. The first (Study 1A) was conducted with 3 pre-dose time points (2, 6 and 18 hrs). The second was conducted at 0, 1 and 2 hr predose time points. For both studies, drug was dosed IP or IV.
Using data from the first study, a second study was conducted that was designed to measure dose-response activity of each compound. Compounds were tested at doses of […]., 2.0 and 5 mg/kg using the route and pre-treatment time that produced the best activity.
Compounds ICI-715, ICI-824, ICI-953 and ICI-954 were formulated in water. For the time course study, drugs were formulated at a concentration of 1 mg/ml and dosed 10 ml/kg to produce a dose of 10 mg/kg. For the dose-response study, drugs were formulated at concentrations of 0.05, 0.2 and 0.5 mg/ml and dosed at a volume of 10 ml/kg to produce doses of 0.5, 2 and 5 mg/kg, respectively. Animals were dosed IV or IP.
Lipopolysaccharide (heat killed E. coli 0127:B5; Sigma Aldrich) was prepared in distilled water at a concentration of 0.025 mg/ml, LPS was dosed at a volume of 10 ml/kg (IP) to produce a final dose of 0.25 mg/kg (approximately […]). Drugs were dosed prior to LPS administration as indicated above. Blood was collected by retro-orbital eye bleed 90 minutes after LPS administration. Serum was prepared from blood and TNF-α and IL-1β levels were measured by using the OPT-EIA mouse TNF-α and IL-1β ELISA kits (BD Biosciences) as per directions of the manufacturer.
The first study was designed to determine the optimal route of administration and the optimal pre-treatment time. One pre-dose time course was conducted (for all compounds) with compounds administered at 0, 1 and 2 hrs prior to LPS treatment. For both studies, drug was dosed IP or IV. The IP study and IV study were conducted on separate days.
Using data from the first study, a second study was conducted that was designed to measure dose-response activity of each compound. Compounds were tested at doses of 0.5, 2.0 and 5 mg/kg using the route and pre-treatment time that produced the best activity.

[6] = Phospholipidosis assay (LipidTox); format: cell-based; conditions: human
Description: (§2) More recently, fluorescent dyes have been utilized to assess phospholipidosis in a high throughput manner (Nioi et al., 2007, Toxicol. Sci. 99:162-173). In this assay, HepG2 cells are plated in MEM growth medium and allowed to incubate overnight. Cells are treated with test compounds that have been added to the assay medium (10% fetal bovine serum) containing LipidTox (fluorescent lipophilic dye). After 48 h incubation, cells are fixed and stained with Hoechst. Plates are scanned with an automated fluorescent microscope (Thermo Fisher Cellomics ArrayScan 4.5) and image analysis is used to quantitate cell number and phospholipid accumulation. Compounds are tested in triplicate at multiple concentrations. Three reference compounds, sertraline, perhexyline, and meclizine (high, medium, and low inducers of phospholipidosis, respectively) are included in each assay. The data is expressed as fold induction over background and the % of the positive control (sertraline), which is calculated using the following equation:
(§3) % positive control=100×(RFUcompound−RFUbackground)/(RFUsertaline−RFUbackground),
(§4) where RFU=Relative Fluorescence Unit

[7] = system: HepG2 cells; test: Phospholipidosis assay (LipidTox); format: cell-based
Description: as §2, §3, §4

Row | Structure (SMILES) | % INHIBITION ([1]; 0.1 μM) [%] | % INHIBITION ([1]; 10 μM) [%] | % INHIBITION ([2]; 0.1 μM) [%] | % INHIBITION ([2]; 10 μM) [%] | % INHIBITION ([3]; 0.1 μM) [%] | % INHIBITION ([3]; 10 μM) [%] | % INHIBITION ([4]; 0.1 μM) [%] | % INHIBITION ([4]; 10 μM) [%] | also measured
1 | NCCN1CCC(CCN2c3ccccc3Sc3ccc(C(F)(F)F)cc32)CC1 [ICI-1008] | 38 | 94 | −3 | 0 | −20 | 3 | 4 | 69 | 
2 | NCCN1CCN(CCCCN2c3ccccc3Sc3ccc(C(F)(F)F)cc32)CC1 [ICI-953] | 16 | 71 | 7 | 2 | −10 | −1 | 5 | 54 | TNFα inhibition, dose-response study [5]: ineffective
3 | O=CNCC(=O)NCCN1CCN(CCCN2c3ccccc3Sc3ccc(C(F)(F)F)cc32)CC1 [Compound 37b, 2-formamido-N-(2-(4-(3-(2-(trifluoromethyl)-10H-phenothiazin-10-yl)propyl)piperazin-1-yl)ethyl)acetamide] |  |  |  |  |  |  |  |  | cytotoxicity at 48 h, 1 µM [6]: 32%; cytotoxicity at 48 h, 3 µM [6]: 17%; cytotoxicity at 48 h, 10 µM [6]: 46%; cytotoxicity at 48 h, 30 µM [6]: 100%; fold induction at 48 h, 1 µM [6]: 1; fold induction at 48 h, 3 µM [6]: 4; fold induction at 48 h, 10 µM [6]: 12; cytotoxicity to HepG2 cells [7]: less cytotoxicity; propensity to form phospholipidosis [7]: lower propensity; % Positive Control ([7]; human, 48 h, 1 μM): 0.2%; % Positive Control ([7]; human, 48 h, 3 μM): 5.8%; % Positive Control ([7]; human, 48 h, 10 μM): 21.3%
4 | Cc1cccc(CN2CCN(C(c3ccccc3)c3ccc(Cl)cc3)CC2)c1 (stereo not drawn) [Meclizine, meclizine, reference compound] |  |  |  |  |  |  |  |  | cytotoxicity at 48 h, 25 µM [6]: 0%; fold induction at 48 h, 25 µM [6]: 13; % Positive Control ([7]; human, 48 h, 25 μM): 24%
5 | NCC(=O)NCCN1CCN(CCCCN2c3ccccc3Sc3ccc(C(F)(F)F)cc32)CC1 [ICI-954] | 21 | 89 | 4 | −1 | −3 | 18 | 6 | 56 | TNFα inhibition, dose-response study [5]: ineffective
6 | FC(F)(F)c1ccc2c(c1)N(CCCC1CCNCC1)c1ccccc1S2 [ICI-824] | 28 | 84 |  |  | −14 | 11 |  |  | inhibition at 0.1 µM ([2]; 0.1 μM): 2%; inhibition at 10 µM ([2]; 10 μM): 6%; TNFα inhibition, dose-response study [5]: ineffective; inhibition at 0.1 µM ([4]; 0.1 μM): 2%; inhibition at 10 µM ([4]; 10 μM): 53%
7 | FC(F)(F)c1ccc2c(c1)N(CCC1CCNCC1)c1ccccc1S2 [ICI-1007] | 51 | 87 | 8 | 48 | −12 | 24 | 2 | 48 | 
8 | CNCC(=O)NCCN1CCC(CCCN2c3ccccc3Sc3ccc(C(F)(F)F)cc32)CC1 [ICI-849] | 15 | 85 |  |  | −2 | 10 |  |  | inhibition at 0.1 µM ([2]; 0.1 μM): -7%; inhibition at 10 µM ([2]; 10 μM): -2%; inhibition at 0.1 µM ([4]; 0.1 μM): 18%; inhibition at 10 µM ([4]; 10 μM): 65%
9 | C1CCC(C(CC2CCCCN2)C2CCCCC2)CC1 (stereo not drawn) [Perhexil, perhexyline, reference compound] |  |  |  |  |  |  |  |  | % Cytotoxicity ([7]; 3 μM, 48 h): 10%; Fold Induction ([7]; 3 μM, 48 h): 38; % Positive Control ([7]; 3 μM, 48 h, positive control sertraline): 72%
10 | CN(C)S(=O)(=O)c1ccc2c(c1)N(CCCN1CCN(CCN)CC1)c1ccccc1S2 [ICI-715] | 18 | 83 |  |  | 15 | 62 |  |  | inhibition at 0.1 µM ([2]; 0.1 μM): 23%; inhibition at 10 µM ([2]; 10 μM): 90%; inhibition of TNFα ([5]; dose-response, all doses tested 0.5 to 5 mg/kg, IV): ≥ 50%; inhibition at 0.1 µM ([4]; 0.1 μM): 5%; inhibition at 10 µM ([4]; 10 μM): 87%
11 | CN[C@H]1CC[C@@H](c2ccc(Cl)c(Cl)c2)c2ccccc21 [Sertaline, sertraline, reference compound] |  |  |  |  |  |  |  |  | cytotoxicity at 48 h, 3 µM [6]: 15%; fold induction at 48 h, 3 µM [6]: 52; % Positive Control ([7]; human, 48 h, 3 μM): 100%
